In ChEMBL document CHEMBL3885861, “Open TG-GATES”:

Organism: Rattus norvegicus
Test: Open TG-GATES - Regimen: Daily Repeat
Format: toxicity, organism-based, Sprague-Dawley
Set-up: regimen Daily Repeat, gender Male, age 6 weeks
Conditions: in vivo, po, route gavage; for gamma-GTP / ALP / AST / BUN / CRE / Ca / Cl / DBIL / GLC / IP / K / LDH / Na / PL / RALB / TBIL / TC / TG / TP: tissue Plasma; for APTT / Bas / Eos / Fbg / Hb / Ht / Lym / MCH / MCHC / MCV / Mono / Neu / PT / Plat / RBC / Ret / WBC: tissue Blood; for KIDNEY_L / KIDNEY_R / KIDNEY_TOTAL: tissue Kidney; for LIVER: tissue Liver
[1] = 300 mg/kg, 72 h, dose level Middle, time 3 day
[2] = 300 mg/kg, […], dose level Middle, time 7 day
[3] = 300 mg/kg, […], dose level Middle, time 14 day
[4] = 300 mg/kg, […], dose level Middle, time 28 day

In the case of COc1ccc2[nH]c([S+]([O-])Cc3ncc(C)c(OC)c3C)nc2c1 (centres undefined) [OMEPRAZOLE], the gamma-GTP (100 mg/kg, […], dose level Low, time 28 day) is reported as 0.8 IU/L, the APTT [1] is reported as 19.8 s and the Bas [1] is reported as 0%. It also gave an Eos [1] of 0.8%, a Fbg [1] of 223 mg/dL and a Hb [1] of 13 g/dL. It also gave a Ht [1] of 37.9%, a Lym [1] of 81% and an MCH [1] of 20.9 pg. It also gave an MCHC [1] of 34.3%, an MCV [1] of 60.9 fL and a Mono [1] of 3.6%. It also gave a Neu [1] of 14%, a PT [1] of 12.2 s and a Plat [1] of 135 x10_4/uL. It also gave an RBC [1] of 623 x10_4/ul, a Ret [1] of 4.2% and a WBC [1] of 94 x10_2/uL. For the same compound, the KIDNEY_L [1] was 1 g, the KIDNEY_R [1] was 1 g and the KIDNEY_TOTAL [1] was 2.1 g. It also gave an LIVER [1] of 12.8 g, an ALP [1] of 925.8 IU/L and an AST [1] of 61.4 IU/L. It also gave a BUN [1] of 14.8 mg/dL, a CRE [1] of 0.4 mg/dL and a Ca [1] of 10.5 mg/dL. The Cl [1] was 100.8 meq/L, the DBIL [1] was 0.058 mg/dL and the GLC [1] was 220.6 mg/dL. The IP [1] was 8.9 mg/dL, the K [1] was 3.9 meq/L and the LDH [1] was 184.6 IU/L. For the same compound, the Na [1] was 139.8 meq/L, the PL [1] was 175.8 mg/dL and the RALB [1] was 3.4 g/dL. The TBIL [1] was 0.1 mg/dL, the TC [1] was 101.2 mg/dL and the TG [1] was 85 mg/dL. The TP [1] was 5.6 g/dL, the gamma-GTP [1] was 1 IU/L and the TERMINAL_BW [2] was 269.3 g. For the same compound, the TERMINAL_BW [3] was 314.9 g, the TERMINAL_BW [4] was 384.1 g and the APTT [2] was 21.7 s. It also gave a Bas [2] of 0%, an Eos [2] of 1% and a Fbg [2] of 216.8 mg/dL. For the same compound, the Hb [2] was 13.4 g/dL, the Ht [2] was 39.5% and the Lym [2] was 78.8%. For the same compound, the MCH [2] was 20.6 pg, the MCHC [2] was 33.9% and the MCV [2] was 60.8 fL. It also gave a Mono [2] of 3%, a Neu [2] of 17.4% and a PT [2] of 12 s. The Plat [2] was 156.8 x10_4/uL, the RBC [2] was 649.8 x10_4/ul and the Ret [2] was 4.9%. For the same compound, the WBC [2] was 98.4 x10_2/uL, the APTT [3] was 20.3 s and the Bas [3] was 0%. It also gave an Eos [3] of 0.8%, a Fbg [3] of 211.4 mg/dL and a Hb [3] of 13.6 g/dL. It also gave a Ht [3] of 39.2%, a Lym [3] of 83.8% and an MCH [3] of 20 pg. It also gave an MCHC [3] of 34.6%, an MCV [3] of 57.6 fL and a Mono [3] of 2.8%. The Neu [3] was 11.4%, the PT [3] was 12.2 s and the Plat [3] was 128.3 x10_4/uL. The RBC [3] was 681.4 x10_4/ul, the Ret [3] was 4.2% and the WBC [3] was 96 x10_2/uL. The APTT [4] was 21.8 s, the Bas [4] was 0% and the Eos [4] was 0.8%. The Fbg [4] was 203 mg/dL, the Hb [4] was 14.5 g/dL and the Ht [4] was 42.2%. It also gave a Lym [4] of 80.4%, an MCH [4] of 18.7 pg and an MCHC [4] of 34.3%. It also gave an MCV [4] of 54.6 fL, a Mono [4] of 2.4% and a Neu [4] of 15.6%. For the same compound, the PT [4] was 12.4 s, the Plat [4] was 119.7 x10_4/uL and the RBC [4] was 773.8 x10_4/ul. The Ret [4] was 2.7%, the WBC [4] was 105.1 x10_2/uL and the KIDNEY_L [2] was 1.1 g. The KIDNEY_R [2] was 1.1 g, the KIDNEY_TOTAL [2] was 2.2 g and the KIDNEY_L [3] was 1.3 g. The KIDNEY_R [3] was 1.3 g, the KIDNEY_TOTAL [3] was 2.5 g and the KIDNEY_L [4] was 1.4 g. For the same compound, the KIDNEY_R [4] was 1.4 g, the KIDNEY_TOTAL [4] was 2.9 g and the LIVER [2] was 14.5 g. For the same compound, the LIVER [3] was 15.7 g, the LIVER [4] was 18.2 g and the ALP [2] was 924.4 IU/L. For the same compound, the AST [2] was 63.8 IU/L, the BUN [2] was 17.2 mg/dL and the CRE [2] was 0.4 mg/dL. The Ca [2] was 10.8 mg/dL, the Cl [2] was 101.2 meq/L and the DBIL [2] was 0.086 mg/dL. It also gave a GLC [2] of 208.6 mg/dL, an IP [2] of 8.8 mg/dL and a K [2] of 3.8 meq/L. For the same compound, the LDH [2] was 248.4 IU/L, the Na [2] was 140.8 meq/L and the PL [2] was 173.8 mg/dL. For the same compound, the RALB [2] was 3.4 g/dL, the TBIL [2] was 0.1 mg/dL and the TC [2] was 89 mg/dL. For the same compound, the TG [2] was 124.8 mg/dL, the TP [2] was 5.8 g/dL and the gamma-GTP [2] was 1 IU/L. The ALP [3] was 808.4 IU/L, the AST [3] was 62 IU/L and the BUN [3] was 17.2 mg/dL. The CRE [3] was 0.5 mg/dL, the Ca [3] was 10.5 mg/dL and the Cl [3] was 101.6 meq/L. For the same compound, the DBIL [3] was 0.066 mg/dL, the GLC [3] was 205.4 mg/dL and the IP [3] was 8.3 mg/dL. For the same compound, the K [3] was 3.9 meq/L, the LDH [3] was 198 IU/L and the Na [3] was 141.4 meq/L. The PL [3] was 162.6 mg/dL, the RALB [3] was 3.6 g/dL and the TBIL [3] was 0.1 mg/dL. The TC [3] was 84.4 mg/dL, the TG [3] was 78.4 mg/dL and the TP [3] was 6 g/dL. It also gave a gamma-GTP [3] of 0.8 IU/L, an ALP [4] of 521.6 IU/L and an AST [4] of 56.2 IU/L. The BUN [4] was 15.6 mg/dL, the CRE [4] was 0.5 mg/dL and the Ca [4] was 10.3 mg/dL. It also gave a Cl [4] of 101.6 meq/L, a DBIL [4] of 0.062 mg/dL and a GLC [4] of 221.8 mg/dL. The IP [4] was 7.3 mg/dL, the K [4] was 3.7 meq/L and the LDH [4] was 135 IU/L. It also gave a Na [4] of 141.6 meq/L, a PL [4] of 134.8 mg/dL and an RALB [4] of 3.5 g/dL. It also gave a TBIL [4] of 0.1 mg/dL, a TC [4] of 70 mg/dL and a TG [4] of 66 mg/dL. It also gave a TP [4] of 6.1 g/dL and a gamma-GTP [4] of 1 IU/L.
